Test results: article PMC7827406, “Structure–Activity Relationship (SAR) Study of Spautin-1 to Entail the Discovery of Novel NEK4 Inhibitors” (International Journal of Molecular Sciences, 2021)
Read-outs that look alike come from different tables or passages of the source.

Key:
Assay in all cases: biochemical
Parameters in all cases: Eurofins KinaseProfiler full panel at Km ATP, residual kinase activity (%) relative to DMSO
MAP4K3(h) = biological target: T1, MAP4K3(h) (Homo sapiens, UniProt Q8IVH8)
T1 sequence (Q8IVH8 1-894): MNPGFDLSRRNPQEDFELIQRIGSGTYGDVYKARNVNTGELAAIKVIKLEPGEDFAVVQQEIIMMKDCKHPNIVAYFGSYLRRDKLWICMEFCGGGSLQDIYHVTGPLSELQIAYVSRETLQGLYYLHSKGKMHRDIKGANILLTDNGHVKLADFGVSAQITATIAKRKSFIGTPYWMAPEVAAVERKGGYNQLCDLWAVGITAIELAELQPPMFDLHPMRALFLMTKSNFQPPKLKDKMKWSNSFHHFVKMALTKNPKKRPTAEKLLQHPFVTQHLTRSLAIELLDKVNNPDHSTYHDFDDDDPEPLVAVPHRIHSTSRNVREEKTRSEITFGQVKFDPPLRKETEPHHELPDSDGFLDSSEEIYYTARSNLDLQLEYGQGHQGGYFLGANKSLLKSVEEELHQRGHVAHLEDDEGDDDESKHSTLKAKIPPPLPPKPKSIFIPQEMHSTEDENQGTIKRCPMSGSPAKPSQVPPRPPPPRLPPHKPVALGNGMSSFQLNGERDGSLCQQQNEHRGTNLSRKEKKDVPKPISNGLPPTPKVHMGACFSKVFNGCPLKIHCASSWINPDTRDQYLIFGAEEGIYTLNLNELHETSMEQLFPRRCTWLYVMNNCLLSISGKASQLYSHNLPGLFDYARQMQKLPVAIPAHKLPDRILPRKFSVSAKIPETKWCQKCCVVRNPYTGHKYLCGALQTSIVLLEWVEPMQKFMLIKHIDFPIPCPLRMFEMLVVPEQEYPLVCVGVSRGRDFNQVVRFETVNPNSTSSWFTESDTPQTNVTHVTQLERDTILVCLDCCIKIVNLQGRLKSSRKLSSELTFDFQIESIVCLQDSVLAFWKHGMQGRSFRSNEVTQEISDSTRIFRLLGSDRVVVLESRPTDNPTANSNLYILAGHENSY
Method in brief: (§1)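 Compounds screened at 10 µM in radiometric kinase activity assays at Km ATP, reported as remaining kinase activity (%). A KINOMEscan competition-binding screen at 10 µM measured DNA-tagged kinase retained on immobilized active-site ligand by qPCR.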

FGFR3(h) = FGFR3(h) (Homo sapiens, UniProt P22607)
Method in brief: as §1

HIPK2(h) = HIPK2(h) (Homo sapiens, UniProt Q9H2X6)
Method in brief: as §1

Cdc7/cyclinB1(h) = Cdc7/cyclinB1(h) (Homo sapiens, UniProt O00311)
Method in brief: as §1

[1] = biological target: T2, PI3 Kinase (p110a/p65a)(m) (Mus musculus, UniProt P42337)
T2 construct: gene Pik3ca; with p65a
Method in brief: as §1

OSR1(h) = biological target: T3, OSR1(h) (Homo sapiens, UniProt O95747)
T3 construct: gene OXSR1
Method in brief: as §1

CK1ε(h) = biological target: T4, CK1ε(h) (Homo sapiens, UniProt P49674)
T4 construct: gene CSNK1E
Method in brief: as §1

CDK2/cyclinA(h) = CDK2/cyclinA(h) (Homo sapiens, UniProt P24941)
Method in brief: as §1

DYRK1A(h) = DYRK1A(h) (Homo sapiens, UniProt Q13627)
Method in brief: as §1

[2] = read-out: Residual activity (%) 5ay
[3] = read-out: Residual activity (%) Spautin-1 5aa
[4] = read-out: Residual activity (%) 5at
[5] = read-out: Residual activity (%) 5as

Sequence of FGFR3(h) (P22607 whole entry): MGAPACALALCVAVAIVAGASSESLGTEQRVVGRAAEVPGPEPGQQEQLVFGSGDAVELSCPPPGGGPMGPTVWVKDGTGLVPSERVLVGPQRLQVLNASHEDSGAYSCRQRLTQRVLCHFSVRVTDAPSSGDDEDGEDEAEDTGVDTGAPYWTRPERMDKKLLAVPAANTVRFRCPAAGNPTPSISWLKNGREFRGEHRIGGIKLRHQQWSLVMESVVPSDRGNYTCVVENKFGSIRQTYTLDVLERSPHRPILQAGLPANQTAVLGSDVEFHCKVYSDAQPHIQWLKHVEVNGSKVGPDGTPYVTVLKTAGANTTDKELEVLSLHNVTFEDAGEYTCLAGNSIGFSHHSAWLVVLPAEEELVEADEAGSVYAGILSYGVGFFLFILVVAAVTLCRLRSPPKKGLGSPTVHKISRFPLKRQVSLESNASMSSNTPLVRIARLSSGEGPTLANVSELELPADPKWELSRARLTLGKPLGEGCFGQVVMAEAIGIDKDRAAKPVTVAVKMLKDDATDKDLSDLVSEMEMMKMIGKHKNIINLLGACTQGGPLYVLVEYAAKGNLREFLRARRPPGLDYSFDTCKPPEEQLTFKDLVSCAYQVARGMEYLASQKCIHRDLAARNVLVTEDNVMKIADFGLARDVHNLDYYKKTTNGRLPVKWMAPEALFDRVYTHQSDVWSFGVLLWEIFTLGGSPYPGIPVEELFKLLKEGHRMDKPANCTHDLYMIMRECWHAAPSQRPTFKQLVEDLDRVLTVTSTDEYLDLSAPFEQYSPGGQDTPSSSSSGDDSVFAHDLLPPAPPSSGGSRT
T3 sequence (O95747 whole entry): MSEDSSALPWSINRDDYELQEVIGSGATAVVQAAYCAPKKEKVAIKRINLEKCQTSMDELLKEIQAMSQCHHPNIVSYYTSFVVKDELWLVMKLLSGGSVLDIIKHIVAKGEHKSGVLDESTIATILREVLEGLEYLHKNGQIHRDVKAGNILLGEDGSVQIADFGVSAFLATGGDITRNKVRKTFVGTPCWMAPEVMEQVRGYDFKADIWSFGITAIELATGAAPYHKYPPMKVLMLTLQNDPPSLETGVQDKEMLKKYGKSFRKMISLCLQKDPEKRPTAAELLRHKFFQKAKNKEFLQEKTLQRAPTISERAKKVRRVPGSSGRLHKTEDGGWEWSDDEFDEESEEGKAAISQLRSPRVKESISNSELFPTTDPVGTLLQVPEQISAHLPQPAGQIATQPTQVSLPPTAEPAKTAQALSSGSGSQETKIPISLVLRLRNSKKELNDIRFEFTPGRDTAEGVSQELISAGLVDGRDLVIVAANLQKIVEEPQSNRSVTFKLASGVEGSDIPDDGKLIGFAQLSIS
T2 sequence (P42337 whole entry): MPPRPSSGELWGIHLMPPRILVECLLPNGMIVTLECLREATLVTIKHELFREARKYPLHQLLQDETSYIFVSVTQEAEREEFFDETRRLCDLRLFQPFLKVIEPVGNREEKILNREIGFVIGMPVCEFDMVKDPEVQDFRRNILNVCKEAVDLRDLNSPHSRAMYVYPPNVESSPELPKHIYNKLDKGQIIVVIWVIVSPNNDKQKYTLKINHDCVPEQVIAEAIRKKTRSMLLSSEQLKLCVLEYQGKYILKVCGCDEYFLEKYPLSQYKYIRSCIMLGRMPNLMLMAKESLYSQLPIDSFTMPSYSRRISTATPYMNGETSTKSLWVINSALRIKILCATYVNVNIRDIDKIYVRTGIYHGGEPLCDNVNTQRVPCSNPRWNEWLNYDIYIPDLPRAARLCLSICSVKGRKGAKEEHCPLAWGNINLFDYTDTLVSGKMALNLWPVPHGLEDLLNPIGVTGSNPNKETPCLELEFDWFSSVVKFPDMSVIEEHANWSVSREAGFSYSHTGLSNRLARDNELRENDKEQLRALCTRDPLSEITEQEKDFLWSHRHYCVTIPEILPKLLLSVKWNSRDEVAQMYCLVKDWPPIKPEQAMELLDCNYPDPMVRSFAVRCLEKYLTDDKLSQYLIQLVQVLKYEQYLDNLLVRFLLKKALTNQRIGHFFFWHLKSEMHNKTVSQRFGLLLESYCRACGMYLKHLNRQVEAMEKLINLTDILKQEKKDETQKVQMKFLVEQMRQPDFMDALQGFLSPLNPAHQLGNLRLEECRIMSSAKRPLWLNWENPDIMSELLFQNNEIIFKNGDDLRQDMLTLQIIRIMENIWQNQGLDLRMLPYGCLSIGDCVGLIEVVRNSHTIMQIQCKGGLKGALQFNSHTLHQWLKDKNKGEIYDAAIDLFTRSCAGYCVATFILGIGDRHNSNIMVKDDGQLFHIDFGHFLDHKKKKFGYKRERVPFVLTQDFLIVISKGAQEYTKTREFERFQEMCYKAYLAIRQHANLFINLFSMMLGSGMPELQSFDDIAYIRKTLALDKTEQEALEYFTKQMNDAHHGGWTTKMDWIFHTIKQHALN
T2 sequence (P26450 whole entry partner): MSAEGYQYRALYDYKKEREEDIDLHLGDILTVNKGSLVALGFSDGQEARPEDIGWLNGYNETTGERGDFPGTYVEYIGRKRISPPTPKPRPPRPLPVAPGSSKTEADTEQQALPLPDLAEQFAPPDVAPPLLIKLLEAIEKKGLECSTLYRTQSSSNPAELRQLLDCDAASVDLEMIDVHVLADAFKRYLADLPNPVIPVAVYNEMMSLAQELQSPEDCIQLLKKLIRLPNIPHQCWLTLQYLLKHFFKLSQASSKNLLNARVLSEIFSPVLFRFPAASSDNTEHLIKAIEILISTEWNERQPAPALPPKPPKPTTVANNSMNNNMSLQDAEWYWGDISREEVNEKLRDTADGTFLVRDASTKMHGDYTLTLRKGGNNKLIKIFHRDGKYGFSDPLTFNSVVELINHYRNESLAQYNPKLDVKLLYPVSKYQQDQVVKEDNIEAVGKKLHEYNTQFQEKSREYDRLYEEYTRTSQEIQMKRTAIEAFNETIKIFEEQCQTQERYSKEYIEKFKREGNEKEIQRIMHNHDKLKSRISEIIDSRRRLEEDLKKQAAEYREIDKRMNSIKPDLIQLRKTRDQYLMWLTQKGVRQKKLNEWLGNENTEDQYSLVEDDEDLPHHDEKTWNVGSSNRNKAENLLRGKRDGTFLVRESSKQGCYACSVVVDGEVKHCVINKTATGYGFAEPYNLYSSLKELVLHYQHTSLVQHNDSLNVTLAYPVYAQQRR
T4 sequence (P49674 whole entry): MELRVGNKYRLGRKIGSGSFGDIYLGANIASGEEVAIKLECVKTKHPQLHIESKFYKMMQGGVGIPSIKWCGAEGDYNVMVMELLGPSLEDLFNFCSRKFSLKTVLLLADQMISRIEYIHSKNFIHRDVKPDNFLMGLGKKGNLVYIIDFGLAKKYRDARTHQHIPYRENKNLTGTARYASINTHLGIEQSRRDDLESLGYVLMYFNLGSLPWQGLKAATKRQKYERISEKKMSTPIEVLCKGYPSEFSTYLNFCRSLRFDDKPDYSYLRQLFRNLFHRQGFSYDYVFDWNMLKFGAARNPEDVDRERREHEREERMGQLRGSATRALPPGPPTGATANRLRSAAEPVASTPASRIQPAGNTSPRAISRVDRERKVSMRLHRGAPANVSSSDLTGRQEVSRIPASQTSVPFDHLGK
Sequence of HIPK2(h) (Q9H2X6 whole entry): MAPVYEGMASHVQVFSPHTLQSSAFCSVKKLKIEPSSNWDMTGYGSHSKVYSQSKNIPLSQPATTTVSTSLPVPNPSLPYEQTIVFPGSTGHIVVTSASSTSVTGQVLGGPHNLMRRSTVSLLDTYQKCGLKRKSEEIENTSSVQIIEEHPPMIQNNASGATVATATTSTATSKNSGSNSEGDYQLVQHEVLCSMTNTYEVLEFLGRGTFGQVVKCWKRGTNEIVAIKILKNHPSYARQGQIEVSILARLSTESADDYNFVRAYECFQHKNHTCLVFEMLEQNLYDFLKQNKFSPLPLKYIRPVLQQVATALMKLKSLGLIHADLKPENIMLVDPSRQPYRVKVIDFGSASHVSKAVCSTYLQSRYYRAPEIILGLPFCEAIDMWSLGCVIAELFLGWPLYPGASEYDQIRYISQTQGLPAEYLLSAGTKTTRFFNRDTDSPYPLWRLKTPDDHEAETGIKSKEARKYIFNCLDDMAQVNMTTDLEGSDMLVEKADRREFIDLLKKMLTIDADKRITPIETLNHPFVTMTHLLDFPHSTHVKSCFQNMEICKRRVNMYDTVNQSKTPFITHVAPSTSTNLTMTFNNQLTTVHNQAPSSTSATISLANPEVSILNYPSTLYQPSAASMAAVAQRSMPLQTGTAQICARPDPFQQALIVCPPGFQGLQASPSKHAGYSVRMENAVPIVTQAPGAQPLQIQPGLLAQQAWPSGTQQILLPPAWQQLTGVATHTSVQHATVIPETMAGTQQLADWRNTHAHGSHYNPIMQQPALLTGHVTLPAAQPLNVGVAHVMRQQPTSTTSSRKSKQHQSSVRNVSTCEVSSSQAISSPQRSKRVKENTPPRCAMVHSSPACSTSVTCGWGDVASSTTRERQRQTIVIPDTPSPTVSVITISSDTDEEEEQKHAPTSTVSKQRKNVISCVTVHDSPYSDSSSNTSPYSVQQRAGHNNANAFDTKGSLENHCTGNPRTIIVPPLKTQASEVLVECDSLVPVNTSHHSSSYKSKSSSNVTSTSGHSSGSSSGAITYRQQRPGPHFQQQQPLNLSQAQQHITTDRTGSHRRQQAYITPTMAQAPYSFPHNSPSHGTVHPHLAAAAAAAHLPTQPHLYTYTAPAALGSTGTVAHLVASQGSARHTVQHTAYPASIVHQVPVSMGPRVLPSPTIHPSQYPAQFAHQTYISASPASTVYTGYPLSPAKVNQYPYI

Which results are given for `COc1ccc2ncnc(Nc3cccc(F)c3)c2c1` [5ay, N-(3-Fluorophenyl)-6-Methoxy-4-Quinazolinamine]?
remaining activity at 10 µM (MAP4K3(h); [2]): 87%; remaining activity at 10 µM (FGFR3(h); [2]): 94%; remaining activity at 10 µM (HIPK2(h); [2]): 86%; remaining activity at 10 µM (Cdc7/cyclinB1(h); [2]): 73%; remaining activity at 10 µM [1, 2]: 101%; remaining activity at 10 µM (OSR1(h); [2]): 107%; remaining activity at 10 µM (CK1ε(h); [2]): 78%; remaining activity at 10 µM (CDK2/cyclinA(h); [2]): 83%; remaining activity at 10 µM (DYRK1A(h); [2]): 29%

`Fc1ccc(CNc2ncnc3ccc(F)cc23)cc1` [5aa, 6-Fluoro-N-(4-fluorobenzyl)-4-Quinazolinamine] was tested. Which remaining activity at 10 µM (MAP4K3(h); [3]) did it give?
Its remaining activity at 10 µM is 99%.

What about the remaining activity at 10 µM (FGFR3(h); [3]) of the same molecule?
The remaining activity at 10 µM was 97%.

And the remaining activity at 10 µM (HIPK2(h); [3])?
Its remaining activity at 10 µM is 109%.

What about the remaining activity at 10 µM (Cdc7/cyclinB1(h); [3]) of the same molecule?
The remaining activity at 10 µM was 92%.

And the remaining activity at 10 µM [1, 3]?
Its remaining activity at 10 µM is 98%.

And the remaining activity at 10 µM (OSR1(h); [3])?
The remaining activity at 10 µM was 100%.

What about the remaining activity at 10 µM (CK1ε(h); [3]) of the same molecule?
The remaining activity at 10 µM was 87%.

And the remaining activity at 10 µM (CDK2/cyclinA(h); [3])?
The remaining activity at 10 µM was 95%.

What about the remaining activity at 10 µM (DYRK1A(h); [3]) of the same molecule?
The remaining activity at 10 µM was 74%.

Which results are given for `Fc1ccc2ncnc(NCCc3ccc(Cl)cc3)c2c1` [5at, N-[2-(4-Chlorophenyl)Ethyl]-6-Fluoro-4-Quinazolinamine]?
remaining activity at 10 µM (MAP4K3(h); [4]): 93%; remaining activity at 10 µM (FGFR3(h); [4]): 99%; remaining activity at 10 µM (HIPK2(h); [4]): 94%; remaining activity at 10 µM (Cdc7/cyclinB1(h); [4]): 76%; remaining activity at 10 µM [1, 4]: 87%; remaining activity at 10 µM (OSR1(h); [4]): 108%; remaining activity at 10 µM (CK1ε(h); [4]): 82%; remaining activity at 10 µM (CDK2/cyclinA(h); [4]): 86%; remaining activity at 10 µM (DYRK1A(h); [4]): 63%

Which results are given for `Fc1ccc(CCNc2ncnc3ccc(F)cc23)cc1` [5as, 6-Fluoro-N-[2-(4-Fluorophenyl)Ethyl]-4-Quinazolinamine]?
remaining activity at 10 µM (MAP4K3(h); [5]): 87%; remaining activity at 10 µM (FGFR3(h); [5]): 108%; remaining activity at 10 µM (HIPK2(h); [5]): 96%; remaining activity at 10 µM (Cdc7/cyclinB1(h); [5]): 79%; remaining activity at 10 µM [1, 5]: 86%; remaining activity at 10 µM (OSR1(h); [5]): 95%; remaining activity at 10 µM (CK1ε(h); [5]): 76%; remaining activity at 10 µM (CDK2/cyclinA(h); [5]): 82%; remaining activity at 10 µM (DYRK1A(h); [5]): 68%
